In patent publication US12145948B2, “Compounds and methods for modulating HER2” (IAMBIC THERAPEUTICS, INC., priority 2022, dated 2024) one finds IC50 and GI50 data, which are given here for six molecules.

A value given as a limit tells only on which side of the number the result lay.

Experiment [1] addresses T1, ERBB2-A775_G776insYVMA (ERBB2YVMA) (Homo sapiens, UniProt P04626, INS775YVMA).
T1 construct: purchased SignalChem E27-13BG
The experiment can be described thus: HotSpot radiometric kinase activity assay, ERBB2YVMA. As to conditions: biochemical activity, read-out: HER2-YVMA IC50. How it is done:
The purpose of the wtERBB2, ERBB2-A775_G776insYVMA (ERBB2YVMA), wtEGFR biochemical assay was to evaluate the inhibition (% inhibition and IC50 values) of the small molecule inhibitors by using the “HotSpot” radiometric kinase activity assay. HotSpot assays monitor the […] of kinase substrate by the radioactive gamma phosphate of adenosine triphosphate (33P-ATP) during biochemical reactions. HotSpot assays was performed in steps upon completion of the kinase reaction: deposition of a reaction mixture aliquot onto P81 ion exchange paper, extensive washing of the aforementioned P81 paper using phosphoric acid to remove unbound radiolabeled 33P-ATP from the P81 paper, and finally visualization and quantification of the dried P81 paper utilizing a phosphoimager. […] Typical reaction solutions (10 μL final reaction volume) contained the following buffer conditions: 20 mM Hepes (pH 7.5), 10 mM MgCl2, 1 mM EGTA, 0.01% Brij35, 0.02 mg/mL BSA, 0.1 mM Na3VO4, 2 mM DTT, 1% DMSO. The assay was primed by preparing a fresh 0.2 mg/mL solution of pEY (Sigma Cat: P7244) substrate in the reaction buffer and supplementing that solution with […] of MnCl2 as substrate cofactor (Sigma Cat: M9522). The kinase of interest was then added to the solution at the appropriate concentration (30 nM wtERBB2 from, or 20 nM ERBB2YVMA, or 4 nM wtEGFR) and gently mixed prior to delivery of compound in 100% DMSO by acoustic dispensing (Beckman Echo550). Compound, Kinase, and substrate were allowed to incubate for 20 min at room temperature prior to the initiation of the reaction by addition of 33P-ATP (PerkinElmer Cat: NEG602, final conc 10 μM). […] IC50 determinations were made from a plot of kinase activity as a function of inhibitor concentration fit to the 4-parameter IC50 equation with the enzyme concentration held constant using GraphPad Prism (San Diego).

In a further experiment the target is BaF3_HER2WT cells (Homo sapiens, UniProt P04626). The experiment can be described thus: Cell growth inhibition assay (CellTiterGlo, 3 days), BaF3_HER2WT. The experiment is classed as cell-based. As to conditions: read-out: HER2 WT IC50. A general note: Cellular ATP, detected with luciferase, serves as a proxy for viable cell number.
The target in another experiment is BaF3-HER2YVMA cells (Homo sapiens, UniProt P04626, DUP772-775, cells depend on it). The experiment in a line: Cell growth inhibition assay (CellTiterGlo, 3 days), BaF3-HER2YVMA. Type of experiment: cell-based. The settings on record: BaF3_HER2YVMA cells, read-out: HER2-YVMA IC50.
For the next experiment, the target named is BaF3_EGFRWT cells (Homo sapiens, UniProt P00533). The experiment can be described thus: Cell growth inhibition assay (CellTiterGlo, 3 days), BaF3_EGFRWT. The experiment is classed as cell-based. The settings on record: read-out: EGFR WT IC50.
BaF3_EGFRWT cells, sequence (P00533 whole entry, change not shown): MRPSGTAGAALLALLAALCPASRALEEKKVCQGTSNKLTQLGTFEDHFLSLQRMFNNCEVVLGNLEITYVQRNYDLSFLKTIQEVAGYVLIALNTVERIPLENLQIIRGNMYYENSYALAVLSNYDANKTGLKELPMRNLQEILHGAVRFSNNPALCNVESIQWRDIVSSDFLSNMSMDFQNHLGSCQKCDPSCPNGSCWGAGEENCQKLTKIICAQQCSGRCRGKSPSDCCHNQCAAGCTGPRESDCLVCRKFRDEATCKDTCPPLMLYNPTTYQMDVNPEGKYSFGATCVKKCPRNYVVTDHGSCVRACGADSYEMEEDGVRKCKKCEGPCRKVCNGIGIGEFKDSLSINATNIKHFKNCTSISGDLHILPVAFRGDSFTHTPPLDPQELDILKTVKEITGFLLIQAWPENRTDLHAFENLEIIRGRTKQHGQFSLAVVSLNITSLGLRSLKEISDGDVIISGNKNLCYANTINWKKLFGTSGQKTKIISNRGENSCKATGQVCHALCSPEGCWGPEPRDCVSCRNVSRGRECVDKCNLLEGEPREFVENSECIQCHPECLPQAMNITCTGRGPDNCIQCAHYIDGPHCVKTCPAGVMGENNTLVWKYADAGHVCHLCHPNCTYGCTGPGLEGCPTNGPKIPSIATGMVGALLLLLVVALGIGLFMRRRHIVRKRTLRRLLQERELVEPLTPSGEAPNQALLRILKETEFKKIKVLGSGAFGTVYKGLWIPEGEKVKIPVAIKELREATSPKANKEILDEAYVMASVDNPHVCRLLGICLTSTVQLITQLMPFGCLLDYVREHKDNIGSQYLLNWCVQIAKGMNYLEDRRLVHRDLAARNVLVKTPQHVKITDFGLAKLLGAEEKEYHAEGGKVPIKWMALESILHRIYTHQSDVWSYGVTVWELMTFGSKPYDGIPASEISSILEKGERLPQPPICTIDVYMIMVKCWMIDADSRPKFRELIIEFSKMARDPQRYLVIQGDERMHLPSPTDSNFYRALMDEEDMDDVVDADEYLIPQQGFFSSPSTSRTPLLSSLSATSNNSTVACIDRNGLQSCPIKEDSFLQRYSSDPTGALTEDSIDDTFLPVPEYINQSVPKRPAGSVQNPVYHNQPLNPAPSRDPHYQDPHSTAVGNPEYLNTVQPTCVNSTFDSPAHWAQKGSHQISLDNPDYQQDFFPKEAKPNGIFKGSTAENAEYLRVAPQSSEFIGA

T1 sequence (P04626 with tags, fused parts or gaps INS775YVMA limits assumed): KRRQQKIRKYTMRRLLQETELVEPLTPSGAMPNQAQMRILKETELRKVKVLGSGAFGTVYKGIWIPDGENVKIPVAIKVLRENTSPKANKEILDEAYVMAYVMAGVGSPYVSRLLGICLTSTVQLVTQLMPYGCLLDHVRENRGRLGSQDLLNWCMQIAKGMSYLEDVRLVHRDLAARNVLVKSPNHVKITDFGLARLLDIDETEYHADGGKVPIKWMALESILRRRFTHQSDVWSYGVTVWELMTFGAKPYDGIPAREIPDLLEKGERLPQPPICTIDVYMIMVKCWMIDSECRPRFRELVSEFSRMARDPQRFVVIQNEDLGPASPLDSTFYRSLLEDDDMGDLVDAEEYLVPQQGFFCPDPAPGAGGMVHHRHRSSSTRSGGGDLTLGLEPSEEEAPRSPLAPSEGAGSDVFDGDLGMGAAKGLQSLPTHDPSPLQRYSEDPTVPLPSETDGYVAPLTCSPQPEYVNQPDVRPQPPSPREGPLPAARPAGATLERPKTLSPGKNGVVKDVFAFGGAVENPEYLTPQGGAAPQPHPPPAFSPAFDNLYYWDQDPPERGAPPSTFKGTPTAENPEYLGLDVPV
BaF3_HER2WT cells, sequence (P04626 whole entry, change not shown): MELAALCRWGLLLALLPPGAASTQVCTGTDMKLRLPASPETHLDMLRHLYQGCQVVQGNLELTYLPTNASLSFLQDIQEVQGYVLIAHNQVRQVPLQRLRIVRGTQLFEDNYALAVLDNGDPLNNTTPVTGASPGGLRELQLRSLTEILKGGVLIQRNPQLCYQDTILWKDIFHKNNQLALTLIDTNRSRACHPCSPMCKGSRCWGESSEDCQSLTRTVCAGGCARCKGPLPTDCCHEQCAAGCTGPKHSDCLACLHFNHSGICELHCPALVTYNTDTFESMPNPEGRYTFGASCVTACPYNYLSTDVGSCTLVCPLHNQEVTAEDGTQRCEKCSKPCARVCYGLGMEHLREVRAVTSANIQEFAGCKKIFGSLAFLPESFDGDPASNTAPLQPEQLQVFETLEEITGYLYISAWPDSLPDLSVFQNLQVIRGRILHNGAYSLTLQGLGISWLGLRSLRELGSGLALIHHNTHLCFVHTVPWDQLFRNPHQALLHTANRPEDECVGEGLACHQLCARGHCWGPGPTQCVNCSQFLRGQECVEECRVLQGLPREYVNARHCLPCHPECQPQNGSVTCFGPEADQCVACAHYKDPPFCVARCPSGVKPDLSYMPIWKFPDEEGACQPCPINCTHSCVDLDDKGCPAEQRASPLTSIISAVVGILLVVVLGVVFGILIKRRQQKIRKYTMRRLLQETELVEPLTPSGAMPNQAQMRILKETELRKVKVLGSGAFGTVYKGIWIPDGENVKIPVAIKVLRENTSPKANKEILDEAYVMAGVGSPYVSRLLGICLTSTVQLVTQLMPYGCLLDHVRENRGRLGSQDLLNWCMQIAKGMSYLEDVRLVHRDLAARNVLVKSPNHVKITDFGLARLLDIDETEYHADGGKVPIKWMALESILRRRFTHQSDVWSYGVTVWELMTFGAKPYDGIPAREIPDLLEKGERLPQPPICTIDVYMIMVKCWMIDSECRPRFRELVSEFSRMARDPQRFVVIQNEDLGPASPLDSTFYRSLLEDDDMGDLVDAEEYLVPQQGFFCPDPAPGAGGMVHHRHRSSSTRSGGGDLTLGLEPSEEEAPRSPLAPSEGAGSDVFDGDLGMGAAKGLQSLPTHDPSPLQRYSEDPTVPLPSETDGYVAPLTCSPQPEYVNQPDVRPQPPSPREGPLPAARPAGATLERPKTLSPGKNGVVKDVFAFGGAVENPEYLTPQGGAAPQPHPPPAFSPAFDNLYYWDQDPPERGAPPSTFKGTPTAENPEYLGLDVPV
BaF3-HER2YVMA cells, sequence (P04626 with tags, fused parts or gaps DUP772-775): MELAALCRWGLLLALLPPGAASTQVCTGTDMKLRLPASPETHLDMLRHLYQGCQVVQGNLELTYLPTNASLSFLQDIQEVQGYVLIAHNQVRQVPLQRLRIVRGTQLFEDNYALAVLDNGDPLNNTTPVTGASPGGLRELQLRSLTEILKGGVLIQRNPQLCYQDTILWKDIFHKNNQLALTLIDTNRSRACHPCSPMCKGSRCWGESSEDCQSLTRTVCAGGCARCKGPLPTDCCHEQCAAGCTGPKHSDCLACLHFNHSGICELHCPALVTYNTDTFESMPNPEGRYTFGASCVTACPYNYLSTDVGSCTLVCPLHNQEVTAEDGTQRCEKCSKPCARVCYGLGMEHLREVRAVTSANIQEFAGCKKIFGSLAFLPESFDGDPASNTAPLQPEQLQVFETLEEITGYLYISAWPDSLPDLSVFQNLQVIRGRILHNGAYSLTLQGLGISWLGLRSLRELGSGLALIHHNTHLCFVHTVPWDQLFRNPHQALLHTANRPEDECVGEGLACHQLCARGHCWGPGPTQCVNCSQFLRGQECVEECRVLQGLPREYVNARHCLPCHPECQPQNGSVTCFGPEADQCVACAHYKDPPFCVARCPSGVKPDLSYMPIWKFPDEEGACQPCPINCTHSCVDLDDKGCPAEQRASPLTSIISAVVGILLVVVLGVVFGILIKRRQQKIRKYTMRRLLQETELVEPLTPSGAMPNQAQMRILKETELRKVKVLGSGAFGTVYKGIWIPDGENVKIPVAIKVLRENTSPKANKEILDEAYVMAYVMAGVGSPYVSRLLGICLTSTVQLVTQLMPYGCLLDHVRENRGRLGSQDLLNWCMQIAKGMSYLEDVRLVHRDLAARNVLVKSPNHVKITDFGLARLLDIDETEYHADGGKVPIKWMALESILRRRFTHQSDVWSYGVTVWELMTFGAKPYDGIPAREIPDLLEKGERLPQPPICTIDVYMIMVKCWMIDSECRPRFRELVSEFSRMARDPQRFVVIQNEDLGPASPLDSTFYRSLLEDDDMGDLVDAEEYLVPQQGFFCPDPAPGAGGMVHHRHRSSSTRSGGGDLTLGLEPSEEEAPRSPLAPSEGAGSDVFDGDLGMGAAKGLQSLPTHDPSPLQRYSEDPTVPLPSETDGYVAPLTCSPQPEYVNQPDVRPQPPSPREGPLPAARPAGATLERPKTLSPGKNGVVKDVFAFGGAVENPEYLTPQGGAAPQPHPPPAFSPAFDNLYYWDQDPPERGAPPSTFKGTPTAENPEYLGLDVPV

In the case of `Cc1cc(Nc2ncnn3ccc([C@H]4CCCN(C(=O)/C=C/CN(C)C)C4)c23)ccc1Oc1ccn2ncnc2c1` (single isomer, unassigned) [Example 108], in experiment [1], the IC50 (commonly the concentration needed to halve the response being measured) was below 200 nM.

`Cc1cc(Nc2ncnn3ccc(C4CC5CCC4CN5C(=O)/C=C/CN(C)C)c23)ccc1Oc1ccn2ncnc2c1` (single isomer, unassigned; first eluting) [first eluting isomer of Examples 137 and 138]: at BaF3_HER2WT cells, the GI50 is below 200 nM.

With `Cc1cc(Nc2ncnn3ccc([C@H]4CCCN(C(=O)/C=C/CN(C)C)CC4)c23)ccc1Oc1ccn2ncnc2c1` (single isomer, unassigned) [Example 110], the IC50 in experiment [1] was below 200 nM.

For the molecule `Cc1cc(Nc2ncnn3ccc([C@H]4CCN(C(=O)/C=C/CN(C)C)C4)c23)ccc1Oc1ccn2ncnc2c1` (single isomer, unassigned) [Example 100], in experiment [1], the IC50 is below 200 nM.

In the case of `C=C(CN(C)C)C(=O)N1C2C=C(c3ccn4ncnc(Nc5ccc(Oc6ccn7ncnc7c6)c(C)c5)c34)CC1CC2` (stereo not shown) [Example 30, 1-(3-(4-((4-([1,2,4]triazolo[1,5-a]pyridin-7-yloxy)-3-methylphenyl)amino)pyrrolo[2,1-f][1,2,4]triazin-5-yl)-8-azabicyclo[3.2.1]oct-2-en-8-yl)-2-((dimethylamino)methyl) prop-2-en-1-one acetate], the GI50 was below 200 nM at BaF3_HER2WT cells, below 200 nM on BaF3-HER2YVMA cells and 1.5 to 5 µM on BaF3_EGFRWT cells.

`Cc1cc(Nc2ncnn3ccc(C4CCN(C(=O)[C@@H](F)Cl)CC4)c23)ccc1Oc1ccn2ncnc2c1` (single isomer, unassigned) [second eluting isomer of Examples 173 and 174]: the GI50 is below 200 nM at BaF3_HER2WT cells, below 200 nM on BaF3-HER2YVMA cells and 1.5 to 5 µM at BaF3_EGFRWT cells.
